Results taken from patent US12559504B2, “Benzotriazole derivative” (UBE CORPORATION, priority 2019, dated 2026).

Tests used:
[1] = molecular target: T1, GST fusion human Keap1 (amino acid residue: 325-624) protein (Homo sapiens, UniProt Q14145); assay: Keap1-Nrf2 binding inhibition test (fluorescence polarization); settings: compound concentration of 100 nM; read-out: inhibition rate
T1 construct: GST fusion human Keap1 (amino acid residue: 325-624) protein; purchased Protein tech Ag0779
Outline: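 Fluorescence polarization with FITC-labelled Nrf2 peptide (FITC-Ahx-LDEETGEFL-NH2) and GST-human Keap1 (325-624) in 20 mM Tris pH 7.5, 150 mM NaCl, 0.05% Tween 20, 5 mM DTT, BSA; 30 min at room temperature, ex 482/em 530 nm. Percent inhibition at 100 nM compound, Keap1-free wells = 100%.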

[2] = tested on: NQO1; assay: NQO1 enzyme induction test (in vitro) in Hepa1c1c7 cells; format: cell-based; settings: Mus musculus, Hepa-1c1c7, 48 h, concentration to elevate the NQO1 activity by 1.5 times, about 48 hours, read-out: EC150
Outline: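 Mouse Hepa1c1c7 cells treated about 48 h with compound (0.1% DMSO final), then lysed. NQO1 activity read as MTT reduction at 540 nm with menadione substrate, 5 min at room temperature, and corrected for cell number by CellTiter-Glo. EC150 is the concentration raising NQO1 activity 1.5-fold.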

[3] = Metabolism test using human liver microsome fractions; format: in vitro ADME; settings: human liver microsomes, test compound 10 μmol/L, NADPH and UDP-glucuronic acid, 37° C.
Outline: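 Human or monkey liver microsomes (1 mg protein) with NADPH-regenerating system plus UDP-glucuronic acid/UGT mix, 37 °C; compound at 10 μmol/L final. Samples at 0–30 min quenched in acetonitrile, UV-HPLC; elimination rate (pmol/min/mg-P) from linear slope of residual amount over time.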

[4] = tested on: NQO1; assay: NQO1 expression induction test in mouse kidney (single administration); format: in vivo; settings: Mus musculus, po, 6 h, Dose 30 mg/kg, BALB/c mouse kidney, 6 hours after administration, ratio to control group
Outline: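 Female BALB/c mice received a single oral dose of compound in 0.5% methylcellulose, with untreated mice as controls. Six hours later, left-kidney NQO1 mRNA was measured by SYBR real-time RT-PCR normalised to GAPDH. Induction was expressed as the ratio of mean treated to mean control expression.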

T1 sequence (Q14145 325-624): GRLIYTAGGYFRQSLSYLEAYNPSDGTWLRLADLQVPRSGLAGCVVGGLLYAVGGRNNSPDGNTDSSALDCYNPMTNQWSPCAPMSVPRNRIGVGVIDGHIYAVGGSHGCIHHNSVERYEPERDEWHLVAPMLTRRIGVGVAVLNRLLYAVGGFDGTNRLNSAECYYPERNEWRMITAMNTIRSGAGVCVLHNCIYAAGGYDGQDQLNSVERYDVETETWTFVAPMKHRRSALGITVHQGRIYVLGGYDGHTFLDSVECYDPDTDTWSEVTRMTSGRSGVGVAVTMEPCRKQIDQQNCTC

Row | Compound | inhibition at 0.1 µM [1] | EC (1.5-fold NQO1 activity) [2] | Human metabolic rate [3] | fold induction at 30 mg/kg [4]
1 | CC[C@@H]1CN(Cc2cc(C(c3ccc4c(nnn4C)c3C)C(C)(C)C(=O)O)ccc2C)Cc2cc3ncccc3cc2O1 (stereo partly drawn) [Example 12-(b), 3-(1,4-dimethyl-1H-benzo[d][1,2,3]triazol-5-yl)-3-(3-(((R)-2-ethyl-2,3-dihydro-[1,4]oxazepino[7,6-g]quinolin-4 (5H)-yl)methyl)-4-methylphenyl)-2,2-dimethylpropanoic Acid] | ≥ 50% | 0.0005 to 0.005 µM | D (200≤metabolic rate<250 pmol/min/me protein) | > 6
2 | CC[C@@H]1CN(Cc2cc(C(c3ccc4c(nnn4C)c3C)C(C)(C)C(=O)O)ccc2C)Cc2cc3cccc(C)c3nc2O1 (stereo partly drawn) [Example 13-(b), 3-(1,4-dimethyl-1H-benzo[d][1,2,3]triazol-5-yl)-3-(3-(((R)-2-ethyl-10-methyl-2,3-dihydro-[1,4]oxazepino[7,6-b]quinolin-4 (5H)-yl)methyl)-4-methylphenyl)-2,2-dimethylpropanoic Acid] | ≥ 50% | 0.0005 to 0.005 µM | E (metabolic rate≥250 pmol/min/mg protein) | 3 to 6
3 | CC[C@@H]1CN(Cc2cc(C(c3ccc4c(nnn4C)c3C)C(C)(C)C(=O)O)ccc2C)Cc2cc3cn[nH]c3cc2O1 (stereo partly drawn) [Example 15-(b), 3-(1,4-dimethyl-1H-benzo[d][1,2,3]triazol-5-yl)-3-(3-(((R)-8-ethyl-1,5,7,8-tetrahydro-6H-[1,4]oxazepino[6,7-f]indazol-6-yl)methyl)-4-methylphenyl)-2,2-dimethylpropanoic Acid] | ≥ 50% | 0.0005 to 0.005 µM | E (metabolic rate≥250 pmol/min/mg protein) | 3 to 6
4 | CC[C@@H]1CN(Cc2cc(C(c3ccc4c(nnn4C)c3C)C(C)(C)C(=O)O)ccc2C)Cc2c(ccc3ccccc23)O1 (stereo partly drawn) [Example 16-(b), 3-(1,4-dimethyl-1H-benzo[d][1,2,3]triazol-5-yl)-3-(3-(((R)-4-ethyl-3,4-dihydronaphtho[1,2-f][1,4]oxazepin-2(1H)-yl)methyl)-4-methylphenyl)-2,2-dimethylpropanoic Acid] | ≥ 50% | 0.05 to 0.5 µM | E (metabolic rate≥250 pmol/min/mg protein) | ≤ 3
5 | CC[C@@H]1CN(Cc2cc(C(c3ccc4c(nnn4C)c3C)C(C)(C)C(=O)O)ccc2C)Cc2c(ccc3cccnc23)O1 (stereo partly drawn) [Example 17-(b), 3-(1,4-dimethyl-1H-benzo[d][1,2,3]triazol-5-yl)-3-(3-(((R)-8-ethyl-8,9-dihydro-[1,4]oxazepino[7,6-h]quinolin-10 (11H)-yl)methyl)-4-methylphenyl)-2,2-dimethylpropanoic Acid] | ≥ 50% | 0.005 to 0.05 µM | E (metabolic rate≥250 pmol/min/mg protein) | 3 to 6
6 | CC[C@@H]1CN(Cc2cc(C(c3ccc4c(nnn4C)c3C)C(C)(C)C(=O)O)ccc2C)Cc2c(ccc3ncccc23)O1 (stereo partly drawn) [Example 18-(b), 3-(1,4-dimethyl-1H-benzo[d][1,2,3]triazol-5-yl)-3-(3-(((R)-4-ethyl-3,4-dihydro-[1,4]oxazepino[6,7-f]quinolin-2(1H)-yl)methyl)-4-methylphenyl)-2,2-dimethylpropanoic Acid] | ≥ 50% | 0.005 to 0.05 µM | E (metabolic rate≥250 pmol/min/mg protein) | 3 to 6
7 | CC[C@@H]1CN(Cc2cc(C(c3ccc4c(nnn4C)c3C)C(C)(C)C(=O)O)ccc2C)Cc2c(cnc3ccccc23)O1 (stereo partly drawn) [Example 19-(b), 3-(1,4-dimethyl-1H-benzo[d][1,2,3]triazol-5-yl)-3-(3-(((R)-4-ethyl-3,4-dihydro-[1,4]oxazepino[7,6-c]quinolin-2(1H)-yl)methyl)-4-methylphenyl)-2,2-dimethylpropanoic Acid] | ≥ 50% | 0.0005 to 0.005 µM | E (metabolic rate≥250 pmol/min/mg protein) | ≤ 3
